In article PMC5642495, “Characterization of a novel androgen receptor (AR) coregulator RIPK1 and related chemicals that suppress AR-mediated prostate cancer growth via peptide and chemical screening” (Oncotarget, 2017):

Tests used:
AR transactivation = experiment: AR transcriptional reporter assay in PC-3 cells; assay type: cell-based, human; conditions: 10 nM DHT
Protocol: Figure 1 Associations between RIPK1 and AR (A) Co-IP of Flag-RIPK1 with Flag-AR in the 293T cell line. Extracts of 293T cells overexpressing 3xFlag-RIPK1 and 3xFlag-AR were treated with […]. IP was performed using anti-AR (C19) or anti-RIPK1 antibody or normal rabbit serum (negative control), followed by immunoblotting (IB) with antibodies against AR or RIPK1. (B) RIPK1 interacts with full-length AR and the N- and C-terminal regions of AR in GST pull-down assays. Mutation of the FxxFY motif to AxxAA in RIPK1 reduced interactions with AR. […] (C) Transfection of PC-3 prostate cancer cells with AR and RIPK1. PC-3 cells in 24-well plates were co-transfected with 300 ng MMTV-LUC reporter plasmid and 0.5 ng SV40-Renilla luciferase plasmid, together with 100 ng pCMV-Flag-AR and 100, 300 or 500 ng p3xFLAG- RIPK1. The total plasmid DNA content was made up to 1 µg with pCMV. After 16 h, ethanol or 10 nM DHT was added and cells incubated for an additional 16 h. DHT was used as the AR ligand while ARA70N served as the positive control. Relative LUC activity was determined using the dual luciferase system. (D) RIPK1 functional domain mapping in relation to AR transactivation. PC-3 cells were transfected with pCMV-Flag-AR and RIPK1 expression plasmid, P3xFlag-RIPK1 full-length, P3xFlag-RIPK1-(240-671) or P3xflag-RIPK1-(1-558) plasmid, and cultured overnight. Ethanol or 10 nM DHT was added and cells incubated for an additional 16 h. Relative LUC activity was determined using the dual luciferase system. (E) RIPK1 is expressed in benign prostatic hyperplasia tissue, displaying strong positivity (3+, > 90%) in the gland area but weak (1+, 50%) staining in the background. (F) Human prostate cancer tissues were immunostained for RIPK1. “T” indicates the tumor area (right side) and “Non-T” the non-tumor area (left side). RIPK1 expression was weak (1+, 80%) in the cancer area but remained strong (3+, 70%) in the peri-cancer area. The figures are representative of three benign prostatic gland hyperplasia and cancer tissues.
The PC-3 prostate cancer cell line was used for experiments. […]

AR protein = target: T1, AR protein (Homo sapiens, UniProt P10275); experiment: AR protein degradation; assay type: cell-based; conditions: Figure 6D
T1 sequence (P10275 1-920): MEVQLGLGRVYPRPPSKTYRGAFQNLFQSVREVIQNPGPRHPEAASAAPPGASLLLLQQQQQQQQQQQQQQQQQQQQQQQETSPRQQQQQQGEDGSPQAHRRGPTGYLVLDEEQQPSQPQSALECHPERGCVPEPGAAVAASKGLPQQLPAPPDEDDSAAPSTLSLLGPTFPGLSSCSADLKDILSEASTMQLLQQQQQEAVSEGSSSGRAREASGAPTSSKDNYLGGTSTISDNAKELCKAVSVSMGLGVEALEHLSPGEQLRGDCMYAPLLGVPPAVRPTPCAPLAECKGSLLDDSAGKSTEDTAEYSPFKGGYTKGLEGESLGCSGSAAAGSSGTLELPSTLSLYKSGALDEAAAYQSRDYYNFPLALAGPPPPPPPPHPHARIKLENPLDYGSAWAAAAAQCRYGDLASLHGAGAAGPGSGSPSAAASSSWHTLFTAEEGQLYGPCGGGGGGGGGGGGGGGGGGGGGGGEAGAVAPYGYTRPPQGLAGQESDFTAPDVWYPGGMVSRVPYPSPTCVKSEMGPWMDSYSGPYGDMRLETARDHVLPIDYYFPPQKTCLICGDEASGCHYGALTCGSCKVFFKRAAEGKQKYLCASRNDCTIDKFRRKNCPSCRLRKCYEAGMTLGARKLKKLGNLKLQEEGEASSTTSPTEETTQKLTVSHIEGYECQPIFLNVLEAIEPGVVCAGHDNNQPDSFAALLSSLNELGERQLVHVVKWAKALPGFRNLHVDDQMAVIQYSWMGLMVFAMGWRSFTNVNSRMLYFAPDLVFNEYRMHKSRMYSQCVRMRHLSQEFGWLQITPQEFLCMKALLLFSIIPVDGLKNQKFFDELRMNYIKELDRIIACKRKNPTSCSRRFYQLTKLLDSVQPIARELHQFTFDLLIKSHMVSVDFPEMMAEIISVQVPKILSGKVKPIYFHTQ
Protocol: Figure 6 Mechanism underlying suppression of AR-related functions by oxadiazole derivatives (A–C) Transcriptional activity in reporter assays. PC-3 cells in 24-well plates were transfected as indicated below. After incubation for 16 h, cells were treated with ethanol, 10 nM DHT, or 0.01–10 μM HWC-489 or LHJ-647 for an additional 16 h. Luciferase activity in cell lysates was determined and normalized to protein concentrations. Relative luciferase activity was calculated using the luciferase reporter assay system. (A) PC-3 cells were co-transfected with 350 ng pCDNA3-flag-hAR-N (residues 1–506), 350 ng pCDNA3-hAR-C (residues 556–919), and 300 ng MMTV-Luc plasmids. (B) PC-3 cells were co-transfected with 350 ng GAL4-DBD-3-18, 350 ng pCMX-VP16-AR, and 300 ng pG5-Luc plasmids. (C) PC-3 cells were transfected with 350 ng GAL4-DBD-ARA54C, 350 ng VP16-AR, and 300 ng pG5-Luc plasmids. (D) LHJ-647 promotes AR protein degradation.

| SMILES | effect on AR transactivation in combination with enzalutamide (AR transactivation; 1 µM enzalutamide plus 0.1 µM HWC-489 (lane 14 vs. 4)) | AR protein degradation (AR protein) | effect on AR transactivation in combination with enzalutamide (AR transactivation; 1 µM enzalutamide plus 1 µM LHJ-647 (lane 9 vs. 4)) |
| --- | --- | --- | --- |
| Cc1ccc(-c2nnc(Nc3ccccc3)o2)cc1 [HWC-489] | additive effect | – | – |
| COc1cccc(Nc2nnc(-c3ccc(N(C)C)cc3)o2)c1 [LHJ-647] | – | promoted AR protein degradation | additive effect |
